Experimental data: ChEMBL document CHEMBL5257059, “Pyridine-Based 1,2,4-Triazolo-Tethered Indole Conjugates Potentially Affecting TNKS and PI3K in Colorectal Cancer” (ACS Med Chem Lett, 2023)

Experiments:
Type in all cases: functional, cell-based
A549 = assay: Antiproliferative activity against human A549 cells assessed as inhibition of cell growth incubated for 24 hrs by MTT assay; conditions: A549, 24 h
Caco-2 = assay: Antiproliferative activity against human Caco-2 cells assessed as inhibition of cell growth incubated for 24 hrs by MTT assay; conditions: Caco-2, 24 h
DLD-1 = assay: Antiproliferative activity against human DLD-1 cells assessed as inhibition of cell growth incubated for 24 hrs by MTT assay; conditions: DLD-1, 24 h
A 172 = assay: Antiproliferative activity against human A-172 cells assessed as inhibition of cell growth incubated for 24 hrs by MTT assay; conditions: A 172, 24 h
HT-29 = assay: Antiproliferative activity against human HT-29 cells assessed as inhibition of cell growth incubated for 24 hrs by MTT assay; conditions: HT-29, 24 h
[1] = Antiproliferative activity against human Tera-1 cells assessed as inhibition of cell growth incubated for 24 hrs by MTT assay; conditions: Tera-1, 24 h

| Structure (SMILES) | IC50 (A549) [µM] | IC50 (Caco-2) [µM] | IC50 (DLD-1) [µM] | IC50 (A 172) [µM] | IC50 (HT-29) [µM] | IC50 [1] [µM] |
| --- | --- | --- | --- | --- | --- | --- |
| Cc1cccc(C)c1-n1c(SCCc2c[nH]c3ccccc23)nnc1-c1ccncc1 | > 30 | > 30 | > 30 | > 30 | > 30 | > 30 |
| Clc1cccc(-n2c(SCCc3c[nH]c4ccccc34)nnc2-c2ccncc2)c1 | > 30 | 13.5 | 11 | > 30 | 7.3 | > 30 |
| CCCn1c(SCCc2c[nH]c3ccccc23)nnc1-c1ccncc1 | > 30 | > 30 | > 30 | > 30 | > 30 | > 30 |
| Brc1cccc(-n2c(SCCc3c[nH]c4ccccc34)nnc2-c2ccncc2)c1 | 14.5 | 10.5 | 15.3 | 14.7 | 12.2 | 24.6 |
| Cc1ccccc1-n1c(SCCc2c[nH]c3ccccc23)nnc1-c1ccncc1 | > 30 | > 30 | > 30 | > 30 | > 30 | > 30 |
| Cc1ccc(-n2c(SCCc3c[nH]c4ccccc34)nnc2-c2ccncc2)cc1 | 13.5 | 17.8 | 16.5 | 20.3 | > 30 | > 30 |
| C=CCn1c(SCCc2c[nH]c3ccccc23)nnc1-c1ccncc1 | > 30 | > 30 | > 30 | > 30 | > 30 | > 30 |
| c1ccc(Cn2c(SCCc3c[nH]c4ccccc34)nnc2-c2ccncc2)cc1 | 13.9 | > 30 | 25.8 | 8.1 | > 30 | 10.7 |
| CCCCn1c(SCCc2c[nH]c3ccccc23)nnc1-c1ccncc1 | > 30 | > 30 | > 30 | > 30 | > 30 | > 30 |
| O=[N+]([O-])c1ccc(-n2c(SCCc3c[nH]c4ccccc34)nnc2-c2ccncc2)cc1 | > 30 | > 30 | > 30 | 16.9 | > 30 | > 30 |
| Fc1ccc(-n2c(SCCc3c[nH]c4ccccc34)nnc2-c2ccncc2)cc1 | 8.09 | 10.3 | 10.6 | > 30 | 5.8 | > 30 |
| O=c1[nH]cc(F)c(=O)[nH]1 [FLUOROURACIL] |  |  |  |  | 5.31 |  |
| Brc1ccccc1-n1c(SCCc2c[nH]c3ccccc23)nnc1-c1ccncc1 | 4 | > 30 | > 30 | > 30 | > 30 | > 30 |
| c1ccc(-n2c(SCCc3c[nH]c4ccccc34)nnc2-c2ccncc2)cc1 | > 30 | > 30 | 19 | 26.8 | > 30 | > 30 |
| Clc1ccc(-n2c(SCCc3c[nH]c4ccccc34)nnc2-c2ccncc2)cc1 | 18.7 | 25 | 21.8 | 23.3 | > 30 | > 30 |
